“Also recorded” adds a separate entry of the source.
Key:
U-118 MG cells [1] = test: Reactive oxygen species level (dihydroethidium probe), U-118 MG; type: cell-based; details: 500 µM, 72 h
Protocol: (§1) The BJ (CRL-2522), Caco-2 (HTB-37), PANC-1 (CRL-1469), U-118 MG (HTB-15), SK-MEL-30 (ACC 151), and MDA-MB-231 (HTB-26) cell lines were purchased from ATCC (Manassas, VA, USA) or DSMZ (Braunschweig, GERMANY). Cells were cultured in accordance with manufacturers' recommendations in a DMEM, MEM, or RPMI-1640 (Sigma, Saint Louis, MO, USA; Gibco, Waltham, MA, USA), supplemented with 10% FBS, except for Caco-2 (20%) (Thermo Fisher Scientific, Waltham, MA, USA) and 1% antibiotic mix solution (penicillin, streptomycin; Thermo Fisher Scientific, Waltham, MA, USA) in a humidified atmosphere with 5% CO2 at 37 °C. All cell lines were cultured in T75 cell culture flasks or cell culture dishes to reach 80–90% confluency and seeded at a standard density of 5 × 10^3 cells/0.32 cm^2, except for BJ cells at 2 × 10^3 cells/0.32 cm^2.
(§2) The assay was performed following previously reported method. The cells (BJ, Caco-2, PANC-1, U-118 MG, SK-MEL-30, and MDA-MB-231) were seeded at an established density into 96-well black plates. Measurement of intracellular superoxide, nitric oxide, and free thiol levels were assessed with the use of fluorogenic probes: dihydroethidium (Cayman Chemical, Ann Arbor, MI, USA, #12013), DAF-2 diacetate (Cayman Chemical, Ann Arbor, MI, USA, #85165), and Thiol Tracker Violet (Thermo Scientific, Waltham, MA, USA, #T10095). After compound treatment (72 h), the cells were probed at a final concentration of 5 µM each for 15 min at 37 °C. Quantifications were taken with a BioTek–Synergy H1 microplate reader, and the results are presented as mean values + SD.

U-118 MG cells [2] = test: Reactive nitrogen species level (DAF-2 diacetate probe), U-118 MG; type: cell-based; details: 500 µM, 72 h
Protocol: as §1, §2

MDA-MB-231 cells [3] = test: Reactive nitrogen species level (DAF-2 diacetate probe), MDA-MB-231; type: cell-based, human; details: MDA-MB-231, 500 µM, 72 h
Protocol: as §1
as §2, with “The cells (BJ, Caco-2, PANC-1, U-118 MG, SK-MEL-30, and MDA-MB-231) were seeded at an established density into 96-well black plates.” left out, “After compound treatment (72 h), the cells were probed at a final concentration of 5 µM each for 15 min at 37 °C.” left out

Caco-2 cells = test: Reactive oxygen species level (dihydroethidium probe), Caco-2; type: cell-based, human; details: Caco-2, 500 µM, 72 h
Protocol: as §1, §2

BJ cells [4] = test: Reactive nitrogen species level (DAF-2 diacetate probe), BJ; type: cell-based; details: 500 µM, 72 h
Protocol: as §1
as §2, with “The cells (BJ, Caco-2, PANC-1, U-118 MG, SK-MEL-30, and MDA-MB-231) were seeded at an established density into 96-well black plates.” left out, “After compound treatment (72 h), the cells were probed at a final concentration of 5 µM each for 15 min at 37 °C.” left out

PANC-1 cells = test: Reactive nitrogen species level (DAF-2 diacetate probe), PANC-1; type: cell-based, human; details: PANC-1, 500 µM, 72 h
Protocol: as §1
as §2, with “The cells (BJ, Caco-2, PANC-1, U-118 MG, SK-MEL-30, and MDA-MB-231) were seeded at an established density into 96-well black plates.” left out, “After compound treatment (72 h), the cells were probed at a final concentration of 5 µM each for 15 min at 37 °C.” left out

MDA-MB-231 cells [5] = test: Reactive oxygen species level (dihydroethidium probe), MDA-MB-231; type: cell-based, human; details: MDA-MB-231, 500 µM, 72 h
Protocol: as §1, §2

BJ cells [6] = test: Reactive oxygen species level (dihydroethidium probe), BJ; type: cell-based; details: 500 µM, 72 h
Protocol: as §1, §2

[7] = test system: all cell lines tested (BJ, Caco-2, PANC-1, U-118 MG, SK-MEL-30, MDA-MB-231); test: Reduced glutathione level (Thiol Tracker Violet probe), all cell lines tested; type: cell-based; details: 500 µM, 72 h
Protocol: as §1
as §2, with “The cells (BJ, Caco-2, PANC-1, U-118 MG, SK-MEL-30, and MDA-MB-231) were seeded at an established density into 96-well black plates.” left out, “After compound treatment (72 h), the cells were probed at a final concentration of 5 µM each for 15 min at 37 °C.” left out

| Structure (SMILES) | level of reactive oxygen species (ROS) (U-118 MG cells [1]) | level of reactive nitrogen species (RNS) (U-118 MG cells [2]) | level of reactive oxygen species (ROS) (Caco-2 cells) | level of reactive oxygen species (ROS) (MDA-MB-231 cells [5]) | level of reactive oxygen species (ROS) (BJ cells [6]) | other results |
| --- | --- | --- | --- | --- | --- | --- |
| CC1SC(NC2CCCC2)=NC1=O (centres unmarked) [Compound 3a, 2-(cyclopentylamino)-5-methylthiazol-4(5H)-one] | high increase | increase |  |  |  | level of reactive nitrogen species (RNS) (MDA-MB-231 cells [3]): increase |
| CCC1SC(NC2CCCC2)=NC1=O (centres unmarked) [Compound 3b, 2-(cyclopentylamino)-5-ethylthiazol-4(5H)-one] | high increase |  | high increase |  |  | level of reactive nitrogen species (RNS) (BJ cells [4]): increase |
| CCCC1SC(NC2CCCC2)=NC1=O (centres unmarked) [Compound 3c, 2-(cyclopentylamino)-5-propylthiazol-4(5H)-one] |  |  | high increase |  |  |  |
| CC(C)C1SC(NC2CCCC2)=NC1=O (centres unmarked) [Compound 3d, 2-(cyclopentylamino)-5-isopropylthiazol-4(5H)-one] |  | increase |  |  |  |  |
| CC1(C)SC(NC2CCCC2)=NC1=O [Compound 3e, 2-(cyclopentylamino)-5,5-dimethylthiazol-4(5H)-one] | high increase |  | high increase |  |  | level of reactive nitrogen species (RNS) (PANC-1 cells): increase |
| O=C1N=C(NC2CCCC2)SC1c1ccc(Br)cc1 (centres unmarked) [Compound 3g, 2-(cyclopentylamino)-5-(4-bromophenyl)thiazol-4(5H)-one] |  |  | high increase | increase | increase | level of reduced glutathione [7]: low level; also recorded: especially strong reduction |
| O=C1N=C(NC2CCCC2)SC12CCCCC2 [Compound 3h, 2-(cyclopentylamino)-1-thia-3-azaspiro[4.5]dec-2-en-4-one] | high increase | increase |  | increase | increase |  |
| O=C1N=C(NC2CCCC2)SC12CCC2 [Compound 3i, 6-(cyclopentylamino)-5-thia-7-azaspiro[3.4]oct-6-en-8-one] | high increase |  | high increase | increase | increase |  |

— paper PMC10139140, “Synthesis of Novel 2-(Cyclopentylamino)thiazol-4(5H)-one Derivatives with Potential Anticancer, Antioxidant, and 11β-HSD Inhibitory Activities” (International Journal of Molecular Sciences, 2023)
